Experimental data: US10259796B2, “Oxaspiro[2.5]octane derivatives and analogs” (Zafgen, Inc., priority 2011, dated 2019)
Where two headings read alike, the source gives them in different places.

Assays:
[1] = Cell Based Assay (inhibition range)
recombinant human MetAP2 = target: T1, recombinant human MetAP2 (Homo sapiens, UniProt P50579); experiment: MetAP2 enzyme assay (inhibition of recombinant MetAP2, Met-Gly-Met-Met substrate); type: biochemical; conditions: 50 nM
T1 construct: made in house; host or cells: High Five insect cells (Bac-to-Bac baculovirus)
Protocol: Exemplary procedures for expression and purification of MetAP2 are shown in Griffith et al. (PNAS (1998) 95(26):15183-15188). Briefly, recombinant His-tagged human MetAP2 is expressed by using a Bac-to-Bac baculovirus expression system (GIBCO/BRL). Recombinant baculovirus stocks are generated and amplified as per the manufacturer's instructions. Protein is harvested 36 hr after baculovirus infection of two 15-cm plates of High Five cells.
The cell pellet are weighed and lysed (in 5 ml/g of wet pellet) in pre-chilled lysis buffer [buffer B+1% Nonidet P-40/1 mM phenymethylsulfonyl fluoride (PMSF)/2 μg/ml leupeptin/2 μg/ml aprotinin/1 μg/ml pepstatin]. The lysate is incubated on ice for 10 min and centrifuged at 10,000×g for 10 min. […] The Talon resin is pelleted by centrifugation at 1,200×g for 3 min and washed with 4×10 ml of buffer B. During the final wash, the resin is slurried into a Bio-Rad Econo column. The 6×His-tagged MetAP2 is eluted with 6 ml of 50 mM imidazole in buffer B, and 0.5 ml fractions are collected. The amount and purity of recombinant MetAP2 is analyzed by the absorbance at 280 nm and SDS/PAGE (10% gel). The fractions containing the highest amounts of MetAP2 are pooled and dialyzed against 3 liters of buffer B overnight before storage at 4° C.
An enzyme assay is performed in a 96-well format as described in Griffith et al. (PNAS (1998) 95(26):15183-15188). […] To begin the enzymatic reaction, Met-Gly-Met-Met is added to a final concentration of 4 mM and incubated at 37° C. The reaction is quenched after 20 min by adding EDTA to a concentration of 10 mM. Released methionine is quantitated as described in Ben-Bassat et al. (J Bacteriol (1987) 169:751-757).
IC50 values are calculated and compounds herein are determined to be active inhibitors of MetAP2, with some having nanomolar activities.

[2] = Mice weight loss, 7 day, 1 mg/kg/day oral gavage, diet-induced obese mice; type: in vivo; conditions: Mus musculus, 168 h, read-out: Mice Wt Loss 7 day % WL 1 mpk
Description: Lean body mass is important to normal function in subjects. Substantial loss of lean body mass is not a desirable consequence of a therapy for an overweight or obese subject. A study is undertaken to analyze weight loss with respect to lean body mass.
Mice are divided into two groups, a diet-induced obese group and a lean group (control). For the diet-induced obese group, C57BL/6NTac mice maintained prior to and during the study on a diet containing 60% fat on a kilocalorie basis are further divided into two groups, fifteen mice per group. Average body weight of these diet-induced obese mice is 40 g at the start of the study. For the lean group, fifteen C57BLI6NTac mice are maintained on a diet containing 4.3% by weight fat prior to and during the study. Average body weight of these lean mice is 33 g at the start of the study. Daily food consumption is also recorded.
Compounds of the invention are administered to one of the diet-induced obese mice groups by oral gavage as a solution in 10% DMSO, at dose of 1 mg/kg/day, 7 days. The other diet-induced obese mice group and the lean mice group are not administered anything.

MetAP2 enzyme = target: T2, MetAP2 enzyme (Mus musculus, UniProt O08663); experiment: THX1 N-terminal peptide in mouse testes (MetAP2 inhibition in testes) after 10 days PO 3 mg/kg; type: in vivo; conditions: mice, PO once a day for 10 days, testes taken 24 hours after last dose
T2 construct: from tissue; host or cells: testes of diet-induced obese C57BL/6NTac mice
Protocol: Diet-induced obese mice, C57BL/6NTac mice, were dosed PO once a day for 10 days with 3 mg/kg of compound 201 (fumagillin), 202, 203, 231 and 233. On day 11, 24 hours after the last dose the mice are sacrificed and the testes are dissected out and frozen. The frozen testes are subsequently homogenized and subjected to endoproteinase Glu-C digestion. The resulting digest mixture is analyzed by LC-MS/MS to quantitate the level of the N-terminal peptide of thioredoxin (Thrx), amino acid 1-6. Thioredoxin is a selective substrate of the MetAP2 enzyme and the degree of unprocessed thioredoxin (amino acid 1-6 rather than the processed des-Met thioredoxin amino acid 2-6) is indicative of the level of MetAP2 inhibition in a given tissue.

[3] = Body weight % difference, diet-induced obese mice dosed PO once a day for 10 days with 3 mg/kg; type: in vivo; conditions: diet-induced obese C57BL/6NTac mice
[4] = 1 hr, read-out: MetAP2 Enzyme Assay 1 hr 50 nM
[5] = 2 hr, read-out: MetAP2 Enzyme Assay 2 hr 50 nM
[6] = 4 hr, read-out: MetAP2 Enzyme Assay 4 hr 50 nM
[7] = diet-induced obese C57BL/6NTac mice, oral gavage, 1 mg/kg/day, 7 days

T1 sequence (P50579 whole entry): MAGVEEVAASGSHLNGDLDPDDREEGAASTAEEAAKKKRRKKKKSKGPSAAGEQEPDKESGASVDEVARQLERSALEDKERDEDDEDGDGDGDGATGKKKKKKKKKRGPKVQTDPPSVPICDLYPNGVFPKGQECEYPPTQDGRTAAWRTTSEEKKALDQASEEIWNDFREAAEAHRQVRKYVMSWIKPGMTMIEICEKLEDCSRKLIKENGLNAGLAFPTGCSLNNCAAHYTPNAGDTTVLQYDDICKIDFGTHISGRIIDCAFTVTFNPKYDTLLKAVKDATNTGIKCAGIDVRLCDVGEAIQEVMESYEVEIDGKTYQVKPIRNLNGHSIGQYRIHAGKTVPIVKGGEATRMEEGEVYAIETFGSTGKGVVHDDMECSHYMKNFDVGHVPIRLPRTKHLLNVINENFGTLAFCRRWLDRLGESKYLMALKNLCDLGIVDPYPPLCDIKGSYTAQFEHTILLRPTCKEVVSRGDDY
T2 sequence (O08663 whole entry): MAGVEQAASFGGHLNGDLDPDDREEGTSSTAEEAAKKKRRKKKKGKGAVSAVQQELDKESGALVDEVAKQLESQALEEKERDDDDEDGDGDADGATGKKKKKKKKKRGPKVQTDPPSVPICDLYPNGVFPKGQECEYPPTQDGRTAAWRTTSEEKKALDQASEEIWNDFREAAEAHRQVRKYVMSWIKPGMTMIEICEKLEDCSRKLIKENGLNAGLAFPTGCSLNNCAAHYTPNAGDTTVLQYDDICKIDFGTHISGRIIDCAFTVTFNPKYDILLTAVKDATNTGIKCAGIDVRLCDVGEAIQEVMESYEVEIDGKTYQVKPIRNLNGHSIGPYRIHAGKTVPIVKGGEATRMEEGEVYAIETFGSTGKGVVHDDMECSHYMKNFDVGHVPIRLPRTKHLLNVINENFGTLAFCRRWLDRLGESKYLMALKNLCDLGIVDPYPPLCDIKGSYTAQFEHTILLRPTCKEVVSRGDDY

Row | SMILES | IC50 ([1]; cells printed in nM) [nM] | inhibition at 0.05 µM (recombinant human MetAP2; [4]) [%] | inhibition at 0.05 µM (recombinant human MetAP2; [5]) [%] | inhibition at 0.05 µM (recombinant human MetAP2; [6]) [%] | change in vivo at 1 mg/kg ([2]; po) [%] | change in vivo at 1 mg/kg [2, 7] [%] | IC50 ([1]; in uM) [nM] | inhibition of the enzyme (MetAP2) in the testes, by THX1 N-terminal peptide (MetAP2 enzyme) | weight loss over 10 days of treatment [3]
1 | CO[C@@H]1[C@H](OC(=O)N[C@@H](C(N)=O)C(C)C)CC[C@]2(CO2)[C@H]1[C@@]1(C)O[C@@H]1CC=C(C)C [Example 3] | < 10 | 62 | 90 | 100 | 5 |  |  |  | 
2 | COC(=O)CCCCCCCCC(=O)O[C@@H]1CC[C@]2(CO2)[C@@H]([C@@]2(C)O[C@@H]2CC=C(C)C)[C@@H]1OC [Example 4] | 10 to 100 | 46 | 58 | 94 |  | 12.5 |  |  | 
3 | CO[C@@H]1[C@H](OC(=O)CCCCCCCCC(=O)O)CC[C@]2(CO2)[C@H]1[C@@]1(C)O[C@@H]1CC=C(C)C [Example 5] | < 10 | 15 | 30 | 50 | 9.5 |  |  |  | 
4 | COC(=O)CCCCCCCCCO[C@H]1CC[C@]2(CO2)[C@@H]([C@@]2(C)O[C@@H]2CC=C(C)C)[C@@H]1OC [Example 6] |  | 0 | 0 | 0 |  | 1.7 | > 1000 |  | 
5 | CO[C@@H]1[C@H](NCCCCCCCCCC(=O)O)CC[C@]2(CO2)[C@H]1[C@@]1(C)O[C@@H]1CC=C(C)C [Example 7] |  | 0 | 0 | 0 | 0.5 |  | > 1000 |  | 
6 | CO[C@@H]1C(=O)CC[C@]2(CO2)[C@H]1[C@@]1(C)O[C@@H]1CC=C(C)C [Example 8, fumagillin ketone] | < 10 | 46 | 65 | 93 | 11.3 |  |  |  | 
7 | CO[C@@H]1[C@H](OC(=O)CCCCCCCCC(=O)O)CC[C@]2(CO2)[C@H]1[C@@]1(C)O[C@@H]1CCC(C)C [Example 9] |  | 12 | 35 | 50 |  | 3.3 | 100 to 1000 |  | 
8 | CCCCCCCCCCC(=O)O[C@@H]1CC[C@]2(CO2)[C@@H]([C@@]2(C)O[C@@H]2CC=C(C)C)[C@@H]1OC [Example 12] |  | 0 | 5 | 29 |  | 8.4 | 100 to 1000 |  | 
9 | C=C1CC[C@]2(CO2)[C@@H]([C@@]2(C)O[C@@H]2CC=C(C)C)[C@@H]1OC [Example 15] |  | 26 | 32 | 40 | 7.9 |  | 100 to 1000 |  | 
10 | CCCCCCCC/C=C\CCCCCCCC(=O)O[C@@H]1CC[C@]2(CO2)[C@@H]([C@@]2(C)O[C@@H]2CC=C(C)C)[C@@H]1OC [Example 16] |  | 0 | 0 | 0 | 5.4 |  | > 1000 |  | 
11 | CO[C@H]1[C@H]([C@@]2(C)O[C@@H]2CC=C(C)C)[C@]2(CCC1(F)F)CO2 [Example 17] |  | 29 | 44 | 40 | 0.1 |  | > 1000 |  | 
12 | CCCCCCCCCCS[C@@H]1CC[C@]2(CO2)[C@@H]([C@@]2(C)O[C@@H]2CC=C(C)C)[C@@H]1OC [Example 18] |  | 0 | 0 | 0 |  | 0 | > 1000 |  | 
13 | COC(=O)CCCCCCCCCO[C@@H]1CC[C@]2(CO2)[C@@H]([C@@]2(C)O[C@@H]2CC=C(C)C)[C@@H]1OC [Example 19] |  | 0 | 0 | 0 |  | -0.9 | > 1000 |  | 
14 | CCCCCCCCCC=C1CC[C@]2(CO2)[C@@H]([C@@]2(C)O[C@@H]2CC=C(C)C)[C@@H]1OC [Example 20] |  | 0 | 0 | 0 | 0.4 |  | > 1000 |  | 
15 | CO[C@@H]1[C@@H](F)CC[C@]2(CO2)[C@H]1[C@@]1(C)O[C@@H]1CC=C(C)C [Example 23] | 10 to 100 | 23 | 28 | 27 |  | -0.33 |  |  | 
16 | CCCC/C=C/C[C@H]1O[C@]1(C)[C@H]1[C@H](OC)C(=O)CC[C@]12CO2 [Example 25] | 10 to 100 | 19 | 40 | 40 | 0.1 |  |  |  | 
17 | CO[C@@H]1[C@H](OC(=O)CCCCCCCCC(=O)O[C@@H]2CC[C@]3(CO3)[C@@H]([C@@]3(C)O[C@@H]3CC=C(C)C)[C@@H]2OC)CC[C@]2(CO2)[C@H]1[C@@]1(C)O[C@@H]1CC=C(C)C [Example 27] | 10 to 100 |  |  | 48 | 4.4 |  |  |  | 
18 | CO[C@@H]1[C@H](OC(=O)NCCC2CCCN2C)CC[C@]2(CO2)[C@H]1[C@@]1(C)O[C@@H]1CC=C(C)C (stereo partly shown) [Example 29] | < 10 |  |  | 63 |  | 5.7 |  |  | 
19 | CO[C@@H]1[C@H](OC(=O)NC2CN3CCC2CC3)CC[C@]2(CO2)[C@H]1[C@@]1(C)O[C@@H]1CC=C(C)C (stereo partly shown) [Example 30] | < 10 |  |  | 30 |  | -0.9 |  |  | 
20 | CO[C@@H]1[C@H](OC(=O)N[C@@H](C(=O)NCCCN(C)C)C(C)C)CC[C@]2(CO2)[C@H]1[C@@]1(C)O[C@@H]1CC=C(C)C [Example 32] | < 10 |  |  | 54 |  | 0.3 |  |  | 
21 | CO[C@@H]1[C@H](OC(=O)N[C@@H](C(=O)NCCC2CCCN2C)C(C)C)CC[C@]2(CO2)[C@H]1[C@@]1(C)O[C@@H]1CC=C(C)C (stereo partly shown) [Example 33] | < 10 |  |  | 43 |  | 2.1 |  |  | 
22 | CO[C@@H]1[C@H](OC(=O)/C=C/C=C/C=C/C=C/C(=O)O)CC[C@]2(CO2)[C@H]1[C@@]1(C)O[C@@H]1CC=C(C)C [compound 201, fumagillin, reference compound] |  |  |  |  |  |  |  | No inhibition | robust weight loss
23 | COC(=O)CCCCCCCCC(=O)O[C@@H]1CC[C@]2(CO2)[C@@H]([C@@]2(C)O[C@@H]2CC=C(C)C)[C@@H]1OC [compound 205] |  |  |  |  |  |  |  | No inhibition | robust weight loss
24 | CO[C@@H]1[C@H](OC(=O)CCCCCCCCC(=O)O)CC[C@]2(CO2)[C@H]1[C@@]1(C)O[C@@H]1CC=C(C)C [compound 206] |  |  |  |  |  |  |  | No inhibition | robust weight loss
25 | CCCCCCCCCCC(=O)O[C@@H]1CC[C@]2(CO2)[C@@H]([C@@]2(C)O[C@@H]2CC=C(C)C)[C@@H]1OC [compound 216] |  |  |  |  |  |  |  | No inhibition | robust weight loss
